Target: Somatostatin receptor
Experiment: Compound was tested for its potency to displace 3-[125I]- - Tyr11-SRIF-14 from somatostatin receptor on membranes of rat cerebral cortex
Format: tissue-based

| SMILES | IC50 |
| --- | --- |
| NCCCCCCN[C@H]1CN(CCc2c[nH]c3ccccc23)[C@@H](CO)C(OCc2ccccc2)[C@@H]1OCc1ccccc1 (stereo partly specified) | 11 µM |
| NCCCCCCNC[C@H]1[C@@H](OCc2ccccc2)C(OCc2ccccc2)[C@H](CO)N1CCc1c[nH]c2ccccc12 (stereo partly specified) | 14 µM |
| NCCCCCCNC[C@H]1C(OCc2ccccc2)[C@H](OCc2ccccc2)[C@H](O)CN1CCc1c[nH]c2ccccc12 (stereo partly specified) | 12 µM |

The next lines start with the values.

| IC50 | SMILES |
| --- | --- |
| 12 µM | NCCCCCCN1CC2[C@@H](OCc3ccccc3)[C@H](OCc3ccccc3)[C@H](C1)N2CCc1c[nH]c2ccccc12 |
| 10 µM | NCCCCCCNC[C@@H]1CN(CCc2c[nH]c3ccccc23)C[C@@H](O)[C@@H](OCc2ccccc2)[C@@H]1OCc1ccccc1 |
| 15 µM | NCCCCCCN1CC2[C@@H](OCc3ccccc3)[C@H](OCc3ccccc3)C1CN2CCc1c[nH]c2ccccc12 (stereo partly specified) |
